ChEMBL document CHEMBL1201862, “PubChem BioAssay data set” (2004)
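Following 48 hours of exposure in 96-well plates, responses at five concentrations were used to interpolate endpoints linearly. Abbreviation: GI50, concentration required for 50% inhibition of growth.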 Activity calls are given as the source filed them. Cut-off read from the data, not from the text of the source: active = GI50 up to about 1.1 µM and inactive = higher. Residues, ends and D or L forms follow the SMILES beside them. *: point of attachment. Boc = CC(C)(C)OC(=O)*

What was measured:
Test in all cases: NCI-60 cell line screen, 48 h
A498 = tested on: A498
A549 = tested on: A549
ACHN = tested on: ACHN
BT-549 = tested on: BT-549
CAKI-1 = tested on: CAKI-1
CCRF-CEM = tested on: CCRF-CEM
COLO 205 = tested on: COLO 205
DU-145 = tested on: DU-145
EKVX = tested on: EKVX
HCC 2998 = tested on: HCC 2998
HCT-15 = tested on: HCT-15
HL-60 = tested on: HL-60
HOP-92 = tested on: HOP-92
HT-29 = tested on: HT-29
IGROV-1 = tested on: IGROV-1
K562 = tested on: K562
KM12 = tested on: KM12
LOX IMVI = tested on: LOX IMVI
MCF7 = tested on: MCF7
MDA-MB-435 = tested on: MDA-MB-435
MDA-N = tested on: MDA-N
MOLT-4 = tested on: MOLT-4
Malme-3M = tested on: Malme-3M
NCI-H226 = tested on: NCI-H226
NCI-H23 = tested on: NCI-H23
NCI-H460 = tested on: NCI-H460
NCI-H522 = tested on: NCI-H522
NCI/ADR-RES = tested on: NCI/ADR-RES
OVCAR-3 = tested on: OVCAR-3
OVCAR-4 = tested on: OVCAR-4
OVCAR-5 = tested on: OVCAR-5
OVCAR-8 = tested on: OVCAR-8
PC-3 = tested on: PC-3
RPMI-8226 = tested on: RPMI-8226
RXF 393 = tested on: RXF 393
SF-268 = tested on: SF-268
SF-295 = tested on: SF-295
SF-539 = tested on: SF-539
SK-MEL-28 = tested on: SK-MEL-28
SK-MEL-2 = tested on: SK-MEL-2
SK-MEL-5 = tested on: SK-MEL-5
SK-OV-3 = tested on: SK-OV-3
SN12C = tested on: SN12C
SNB-19 = tested on: SNB-19
SNB-75 = tested on: SNB-75
SW-620 = tested on: SW-620
T47D = tested on: T47D
U-251 = tested on: U-251
UACC-257 = tested on: UACC-257
UACC-62 = tested on: UACC-62
UO-31 = tested on: UO-31
786-0 = tested on: 786-0
HCT-116 = tested on: HCT-116
HOP-62 = tested on: HOP-62
M14 = tested on: M14
MDA-MB-231 = tested on: MDA-MB-231
TK-10 = tested on: TK-10
SR = tested on: SR

COc1nc(-c2cn(S(=O)(=O)c3ccc(C)cc3)c3ccc(Br)cc23)cc(C(F)(F)F)c1C#N
GI50 (A498): 52.5 µM (inactive)
GI50 (A549): > 100 µM (inactive)
GI50 (ACHN): 29.1 µM (inactive)
GI50 (BT-549): 24.5 µM (inactive)
GI50 (CAKI-1): 45.2 µM (inactive)
GI50 (CCRF-CEM): 24.8 µM (inactive)
GI50 (COLO 205): > 100 µM (inactive)
GI50 (DU-145): 16.5 µM (inactive)
GI50 (EKVX): 40 µM (inactive)
GI50 (HCC 2998): 85.9 µM (inactive)
GI50 (HCT-15): 41.4 µM
GI50 (HL-60): 86.7 µM (inactive)
GI50 (HOP-92): 31.3 µM (inactive)
GI50 (HT-29): > 100 µM (inactive)
GI50 (IGROV-1): 28.4 µM (inactive)
GI50 (K562): 27.8 µM (inactive)
GI50 (KM12): > 100 µM (inactive)
GI50 (LOX IMVI): 23.7 µM (inactive)
GI50 (MCF7): 50.4 µM (inactive)
GI50 (MDA-MB-435): 81.1 µM (inactive)
GI50 (MDA-N): > 100 µM (inactive)
GI50 (MOLT-4): 31.3 µM (inactive)
GI50 (Malme-3M): > 100 µM (inactive)
GI50 (NCI-H226): 18 µM (inactive)
GI50 (NCI-H23): 18.8 µM (inactive)
GI50 (NCI-H460): > 100 µM (inactive)
GI50 (NCI-H522): 47.9 µM (inactive)
GI50 (NCI/ADR-RES): 71.8 µM (inactive)
GI50 (OVCAR-3): 18 µM (inactive)
GI50 (OVCAR-4): 41.4 µM (inactive)
GI50 (OVCAR-5): 61.5 µM (inactive)
GI50 (OVCAR-8): 25.6 µM (inactive)
GI50 (PC-3): 47.4 µM (inactive)
GI50 (RPMI-8226): 14.9 µM (inactive)
GI50 (RXF 393): 19.8 µM (inactive)
GI50 (SF-268): 53.2 µM (inactive)
GI50 (SF-295): 97.3 µM (inactive)
GI50 (SF-539): 34.9 µM (inactive)
GI50 (SK-MEL-28): 94.4 µM (inactive)
GI50 (SK-MEL-2): 65.6 µM (inactive)
GI50 (SK-MEL-5): 77.6 µM (inactive)
GI50 (SK-OV-3): 21 µM (inactive)
GI50 (SN12C): 45.1 µM (inactive)
GI50 (SNB-19): 25.9 µM (inactive)
GI50 (SNB-75): 23.3 µM (inactive)
GI50 (SW-620): 66.2 µM (inactive)
GI50 (T47D): 19.5 µM (inactive)
GI50 (U-251): 16.9 µM (inactive)
GI50 (UACC-257): 53.1 µM (inactive)
GI50 (UACC-62): 38.8 µM (inactive)
GI50 (UO-31): 55 µM (inactive)

Cn1c(=N)n[n+]([O-])c2ccccc21
GI50 (786-0): 4.24 µM (inactive)
GI50 (A549): 7.38 µM (inactive)
GI50 (ACHN): 4.9 µM (inactive)
GI50 (BT-549): 1.87 µM (inactive)
GI50 (CAKI-1): 2.49 µM (inactive)
GI50 (CCRF-CEM): 3.01 µM (inactive)
GI50 (COLO 205): 2.34 µM (inactive)
GI50 (DU-145): 2.26 µM (inactive)
GI50 (EKVX): 7.69 µM (inactive)
GI50 (HCT-116): 3.78 µM (inactive)
GI50 (HL-60): 2.79 µM (inactive)
GI50 (HOP-62): 2.45 µM (inactive)
GI50 (HT-29): 1.68 µM (inactive)
GI50 (IGROV-1): 3.59 µM (inactive)
GI50 (K562): 1.59 µM (inactive)
GI50 (KM12): 19.9 µM (inactive)
GI50 (LOX IMVI): 1.62 µM (inactive)
GI50 (M14): 2.02 µM (inactive)
GI50 (MCF7): 2.18 µM (inactive)
GI50 (MDA-MB-231): 9.42 µM (inactive)
GI50 (MDA-MB-435): 0.541 µM (active)
GI50 (MDA-N): 1.9 µM (inactive)
GI50 (MOLT-4): 2.03 µM (inactive)
GI50 (NCI-H226): 6.98 µM (inactive)
GI50 (NCI-H23): 2.07 µM (inactive)
GI50 (NCI-H522): 3.72 µM (inactive)
GI50 (OVCAR-3): 0.895 µM (active)
GI50 (OVCAR-4): 2.48 µM (inactive)
GI50 (OVCAR-5): 2.25 µM (inactive)
GI50 (OVCAR-8): 13 µM (inactive)
GI50 (PC-3): 5.6 µM (inactive)
GI50 (SF-295): 2.98 µM (inactive)
GI50 (SF-539): 1.99 µM (inactive)
GI50 (SK-MEL-2): 2.22 µM (inactive)
GI50 (SK-MEL-5): 1.83 µM (inactive)
GI50 (SK-OV-3): 25.3 µM (inactive)
GI50 (SN12C): 1.84 µM (inactive)
GI50 (SNB-75): 2.01 µM (inactive)
GI50 (SW-620): 2.12 µM (inactive)
GI50 (TK-10): 25.6 µM (inactive)
GI50 (U-251): 12.3 µM (inactive)
GI50 (UACC-257): 2.71 µM (inactive)
GI50 (UACC-62): 1.09 µM (active)
GI50 (UO-31): 3.22 µM (inactive)

CSc1ccc2c(cc1=O)[C@@H](NC(=O)c1ccc(N)cc1)CCc1cc(O)c(O)c(O)c1-2
GI50 (786-0): 12.8 µM (inactive)
GI50 (A498): 73.8 µM (inactive)
GI50 (A549): 19.1 µM (inactive)
GI50 (ACHN): 17 µM (inactive)
GI50 (BT-549): 16.9 µM (inactive)
GI50 (DU-145): > 75 µM (inactive)
GI50 (EKVX): 36.4 µM (inactive)
GI50 (HCC 2998): 13.6 µM (inactive)
GI50 (HCT-15): 11.2 µM
GI50 (HOP-62): 14.4 µM (inactive)
GI50 (HOP-92): 29.4 µM (inactive)
GI50 (IGROV-1): 20.4 µM (inactive)
GI50 (K562): 12.1 µM (inactive)
GI50 (MDA-MB-435): 14.5 µM (inactive)
GI50 (MOLT-4): 33.1 µM (inactive)
GI50 (NCI-H460): 15 µM (inactive)
GI50 (NCI-H522): 13.8 µM (inactive)
GI50 (NCI/ADR-RES): 18.6 µM (inactive)
GI50 (OVCAR-4): 16.1 µM (inactive)
GI50 (OVCAR-5): 22 µM (inactive)
GI50 (OVCAR-8): 26.5 µM (inactive)
GI50 (RPMI-8226): 35 µM (inactive)
GI50 (RXF 393): > 75 µM (inactive)
GI50 (SF-268): 14.3 µM (inactive)
GI50 (SF-295): 17.2 µM (inactive)
GI50 (SK-MEL-28): > 75 µM (inactive)
GI50 (SN12C): 29.5 µM (inactive)
GI50 (SNB-19): 21.8 µM (inactive)
GI50 (T47D): 44 µM (inactive)
GI50 (U-251): 19.4 µM (inactive)
GI50 (UACC-257): 20.8 µM (inactive)
GI50 (UO-31): 20.3 µM (inactive)

COC(=O)C(Cc1c[nH]c2ccccc12)NC(=O)C(Cc1c[nH]c2ccccc12)NC(=O)C(Cc1c[nH]c2ccccc12)NC(=O)C(Cc1c[nH]c2ccccc12)NC(=O)C(Cc1c[nH]c2ccccc12)NC(=O)C(Cc1c[nH]c2ccccc12)NC(=O)OC(C)(C)C (stereo not given) (Boc-WWWWWW-OMe; configuration not given here)
GI50 (786-0): > 100 µM (inactive)
GI50 (A549): 31.7 µM (inactive)
GI50 (ACHN): > 100 µM (inactive)
GI50 (BT-549): 44 µM (inactive)
GI50 (CAKI-1): > 100 µM (inactive)
GI50 (CCRF-CEM): > 100 µM (inactive)
GI50 (DU-145): 32.9 µM (inactive)
GI50 (HCC 2998): > 100 µM (inactive)
GI50 (HCT-116): 37.3 µM (inactive)
GI50 (HCT-15): > 100 µM
GI50 (HL-60): > 100 µM (inactive)
GI50 (HOP-62): > 100 µM (inactive)
GI50 (HT-29): > 100 µM (inactive)
GI50 (IGROV-1): 36.9 µM (inactive)
GI50 (K562): > 100 µM (inactive)
GI50 (LOX IMVI): 38.1 µM (inactive)
GI50 (M14): > 10 µM (inactive)
GI50 (MCF7): 5.25 µM (inactive)
GI50 (MDA-MB-231): > 100 µM (inactive)
GI50 (MDA-MB-435): > 100 µM (inactive)
GI50 (MDA-N): 41.6 µM (inactive)
GI50 (MOLT-4): 63.4 µM (inactive)
GI50 (Malme-3M): 69.5 µM (inactive)
GI50 (NCI-H226): 64 µM (inactive)
GI50 (NCI-H23): 28.5 µM (inactive)
GI50 (NCI-H460): > 100 µM (inactive)
GI50 (NCI-H522): 28.1 µM (inactive)
GI50 (OVCAR-3): > 100 µM (inactive)
GI50 (OVCAR-4): > 100 µM (inactive)
GI50 (OVCAR-5): > 100 µM (inactive)
GI50 (OVCAR-8): 92.9 µM (inactive)
GI50 (PC-3): 52.5 µM (inactive)
GI50 (RPMI-8226): 57 µM (inactive)
GI50 (SF-268): 50.4 µM (inactive)
GI50 (SK-MEL-28): 14.4 µM (inactive)
GI50 (SK-MEL-2): 61.7 µM (inactive)
GI50 (SK-MEL-5): 19.3 µM (inactive)
GI50 (SN12C): 49.9 µM (inactive)
GI50 (SNB-19): 47.3 µM (inactive)
GI50 (SNB-75): 46 µM (inactive)
GI50 (SR): 82.4 µM (inactive)
GI50 (SW-620): > 100 µM (inactive)
GI50 (T47D): 22.2 µM (inactive)
GI50 (TK-10): 31.2 µM (inactive)
GI50 (U-251): 54.7 µM (inactive)
GI50 (UACC-257): 30.3 µM (inactive)
GI50 (UACC-62): 32 µM (inactive)
GI50 (UO-31): 33 µM (inactive)
